“And” between values parts separate entries of the source, which are not always exact repeats. Equal entries are not always repeated. Inconclusive results and toxic doses are left out. How the source made its calls: active means survival T/C of 150% or more; inactive means T/C below 125% in these data.
Test system: P388 leukemia ip, CD2F1 mice, survival T/C
Assay: NCI In Vivo Anticancer Drug Screen. Data for tumor model P388 Leukemia (intraperitoneal) in CD2F1 (CDF1) mice
Conditions: endpoint: median survival time, higher = longer survival
Procedure, shortened: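 Mice carrying the transplanted tumor received test compound or vehicle. Survival was recorded in each group, and the value is the treated-group measurement divided by that of the vehicle-treated control group.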

[1] = dose: 60.0 mg/kg/injection, schedule: Q01DX005 (ip), vehicle: saline with Tween-80
[2] = dose: 120.0 mg/kg/injection, schedule: Q01DX005 (ip), vehicle: saline with Tween-80
[3] = dose: 240.0 mg/kg/injection, schedule: Q01DX005 (ip), vehicle: saline with Tween-80
[4] = dose: 50.0 mg/kg/injection, schedule: Q01DX005 (ip), vehicle: saline with Tween-80
[5] = dose: 100.0 mg/kg/injection, schedule: Q01DX005 (ip), vehicle: saline with Tween-80
[6] = dose: 200.0 mg/kg/injection, schedule: Q01DX005 (ip), vehicle: saline with Tween-80
[7] = dose: 50.0 mg/kg/injection, schedule: Q01DX009 (ip), vehicle: saline with Tween-80
[8] = dose: 100.0 mg/kg/injection, schedule: Q01DX009 (ip), vehicle: saline with Tween-80
[9] = dose: 200.0 mg/kg/injection, schedule: Q01DX009 (ip), vehicle: saline with Tween-80
[10] = dose: 50.0 mg/kg/injection, schedule: Q01DX005 (ip), vehicle: saline
[11] = dose: 100.0 mg/kg/injection, schedule: Q01DX005 (ip), vehicle: saline
[12] = dose: 200.0 mg/kg/injection, schedule: Q01DX005 (ip), vehicle: saline
[13] = dose: 50.0 mg/kg/injection, schedule: Q01DX009 (ip), vehicle: saline
[14] = dose: 100.0 mg/kg/injection, schedule: Q01DX009 (ip), vehicle: saline
[15] = dose: 200.0 mg/kg/injection, schedule: Q01DX009 (ip), vehicle: saline
[16] = dose: 100.0 mg/kg/injection, schedule: Q01DX001 (ip), vehicle: saline with Tween-80
[17] = dose: 200.0 mg/kg/injection, schedule: Q01DX001 (ip), vehicle: saline with Tween-80
[18] = dose: 400.0 mg/kg/injection, schedule: Q01DX001 (ip), vehicle: saline with Tween-80
[19] = dose: 50.0 mg/kg/injection, schedule: Q01DX005 (ip), vehicle: Klucel (hydroxypropylcellulose) (HPC)
[20] = dose: 100.0 mg/kg/injection, schedule: Q01DX005 (ip), vehicle: Klucel (hydroxypropylcellulose) (HPC)
[21] = dose: 200.0 mg/kg/injection, schedule: Q01DX005 (ip), vehicle: Klucel (hydroxypropylcellulose) (HPC)

Measured: T/C

Cc1cc(Nc2ccc(N(C)C)cc2)c2ccc(N(C)C)cc2n1
inactive: dose: 100.0 mg/kg/injection, schedule: Q04DX002 (ip), vehicle: acid diluted with saline 95 % of control | dose: 200.0 mg/kg/injection, schedule: Q04DX002 (ip), vehicle: acid diluted with saline 103 % of control | dose: 400.0 mg/kg/injection, schedule: Q04DX002 (ip), vehicle: acid diluted with saline 96 % of control

Cc1cccc(C)c1NC(=O)CCC(=O)CC(=O)c1ccncc1
inactive: [1] 103 % of control | [2] 105 % of control | [3] 101 % of control

CCCCCCCC[N+]1(CC)CCCC1
inactive: dose: 3.12 mg/kg/injection, schedule: Q01DX009 (ip), vehicle: saline 95 % of control | dose: 6.25 mg/kg/injection, schedule: Q01DX009 (ip), vehicle: saline 95 % of control | dose: 12.5 mg/kg/injection, schedule: Q01DX009 (ip), vehicle: saline 96 % of control

CCC(/C=C/c1ccccc1)=N\Nc1ccccc1
inactive: [4] 104 % of control | [5] 105 % of control | [6] 104 % of control | dose: 400.0 mg/kg/injection, schedule: Q01DX005 (ip), vehicle: saline with Tween-80 98 % of control

CCOC(=O)c1c(C)c(C(=O)OCC)n(CC)c1C=O
inactive: [7] 96 % of control | [8] 98 % of control | [9] 98 % of control

CCCCCCCCCCC1OCN2CCCCC12 (stereo unspecified)
inactive: [10] 108 % of control | [11] 104 % of control | [12] 118 % of control

Cc1ccc(C(C)C)c2c1CN(CCN1COc3c(C(C)C)ccc(C)c3C1)CO2
inactive: dose: 15.0 mg/kg/injection, schedule: Q01DX005 (ip), vehicle: saline with Tween-80 99 % of control | dose: 30.0 mg/kg/injection, schedule: Q01DX005 (ip), vehicle: saline with Tween-80 98 % of control | [1] 91 % of control

Cc1cc(CCO)n[nH]1
inactive: [13] 97 % of control | [14] 100 % of control | [15] 100 % of control

CCn1c(C)cc(=NC(=O)c2ccccc2O)n1-c1ccccc1
inactive: [16] 103 % of control | [17] 106 % of control | [18] 102 % of control

CC(=O)Nc1cccc2nc(-c3ccccn3)n(CCc3ccccn3)c12
inactive: dose: 25.0 mg/kg/injection, schedule: Q01DX005 (ip), vehicle: Klucel (hydroxypropylcellulose) (HPC) 105 % of control | [19] 102 % of control | [20] 103 % of control | [21] 109 % of control

CCSc1cccc2nnc(C(C)(C)C)n12
inactive: [16] 98 % of control | [17] 99 % of control | [18] 97 % of control

COC(=O)c1cc(=O)c2c(ccc3oc(=O)ccc32)[nH]1
inactive: [4] 88 % of control | [5] 88 % of control | [6] 90 % of control

CN/N=C(/C)C(=O)O
inactive: [10] 106 % of control | [11] 99 % of control | [12] 99 % of control

CC1CC(C)S(=O)CS1 (stereo unspecified)
inactive: dose: 100.0 mg/kg/injection, schedule: Q04DX002 (ip), vehicle: saline with Tween-80 98 % of control | dose: 200.0 mg/kg/injection, schedule: Q04DX002 (ip), vehicle: saline with Tween-80 100 % of control

CNc1ncnc2ccc(Cl)cc12
inactive: dose: 50.0 mg/kg/injection, schedule: Q01DX009 (ip), vehicle: Klucel (hydroxypropylcellulose) (HPC) 93 % of control | dose: 100.0 mg/kg/injection, schedule: Q01DX009 (ip), vehicle: Klucel (hydroxypropylcellulose) (HPC) 102 % of control

CCOC(=O)/N=C(/NC(=O)OCC)N1CCN(c2ccnc3cc(Cl)ccc23)CC1
inactive: [4] 98 % of control | [5] 97 % of control | [6] 91 % of control

Cc1ccc(S(=O)(=O)NC(=O)Nn2c(C)nc3ccccc3c2=O)cc1
inactive: [19] 103 % of control | [20] 102 % of control | [21] 106 % of control

CC(=O)Nc1ccc(S(=O)(=O)Nc2c(N)[nH]c(=S)[nH]c2=O)cc1
inactive: [1] 97 % of control | [2] 98 % of control | [3] 97 % of control

CC(C)SC(=S)Nc1cccc(F)c1
inactive: dose: 50.0 mg/kg/injection, schedule: Q01DX009 (ip), vehicle: suspension in saline 107 % of control | dose: 100.0 mg/kg/injection, schedule: Q01DX009 (ip), vehicle: suspension in saline 109 % of control | dose: 200.0 mg/kg/injection, schedule: Q01DX009 (ip), vehicle: suspension in saline 107 % of control

NC1=NC2CC(N1)c1ccc(O)cc1O2 (stereo unspecified)
inactive: [13] 109 % of control | [14] 110 % of control

S=c1s[nH]c2c1CCC2
inactive: [7] 98 % of control | [13] 105 % of control | [8] 101 % of control | [14] 110 % of control | [9] 105 % of control | [15] 120 % of control | dose: 400.0 mg/kg/injection, schedule: Q01DX009 (ip), vehicle: saline with Tween-80 95 % of control

CCCCCCCCCCCCCCCC(=O)N(CCCN)CCCN(CCCN)C(=O)CCCCCCCCCCCCCCC
inactive: dose: 12.5 mg/kg/injection, schedule: Q01DX009 (ip), vehicle: saline with Tween-80 86 % of control | dose: 25.0 mg/kg/injection, schedule: Q01DX009 (ip), vehicle: saline with Tween-80 109 % of control | [7] 100 % of control

O=C(CC(O)c1cccnc1)CC(O)c1cccnc1 (stereo unspecified)
inactive: dose: 60.0 mg/kg/injection, schedule: Q01DX005 (ip), vehicle: saline 100 % of control | dose: 120.0 mg/kg/injection, schedule: Q01DX005 (ip), vehicle: saline 114 % of control | dose: 240.0 mg/kg/injection, schedule: Q01DX005 (ip), vehicle: saline 114 % of control

Nc1nc(Cl)c2nc(Cl)n(C3OC(CO)C(O)C3O)c2n1 (stereo unspecified)
inactive: dose: 50.0 mg/kg/injection, schedule: Q04DX003 (ip), vehicle: saline with Tween-80 100 % of control | dose: 100.0 mg/kg/injection, schedule: Q04DX003 (ip), vehicle: saline with Tween-80 100 % of control | dose: 200.0 mg/kg/injection, schedule: Q04DX003 (ip), vehicle: saline with Tween-80 100 % of control | dose: 400.0 mg/kg/injection, schedule: Q04DX003 (ip), vehicle: saline with Tween-80 91 % of control

C1CC[N-]CC1.C1CC[N-]CC1.[Co].[N-]=C=S.[N-]=C=S
inactive: [16] 100 % of control

Cn1c(=O)c2c(O)c(-c3ccccc3)c(=O)n3c4ccccc4n(c1=O)c23
inactive: [1] 99 % of control | [2] 96 % of control | [3] 97 % of control

Cc1cccc(C)c1NC=O
inactive: dose: 50.0 mg/kg/injection, schedule: Q04DX003 (ip), vehicle: saline 112 % of control | dose: 100.0 mg/kg/injection, schedule: Q04DX003 (ip), vehicle: saline 105 % of control | dose: 200.0 mg/kg/injection, schedule: Q04DX003 (ip), vehicle: saline 106 % of control | dose: 400.0 mg/kg/injection, schedule: Q04DX003 (ip), vehicle: saline 106 % of control

CCC(=[Se])N(CC)CC
inactive: dose: 0.39 mg/kg/injection, schedule: Q01DX009 (ip), vehicle: Klucel (hydroxypropylcellulose) (HPC) 98 % of control | dose: 0.78 mg/kg/injection, schedule: Q01DX009 (ip), vehicle: Klucel (hydroxypropylcellulose) (HPC) 102 % of control | dose: 1.56 mg/kg/injection, schedule: Q01DX009 (ip), vehicle: Klucel (hydroxypropylcellulose) (HPC) 99 % of control | dose: 6.25 mg/kg/injection, schedule: Q01DX009 (ip), vehicle: Klucel (hydroxypropylcellulose) (HPC) 100 % of control

COc1c2c3c4c5c(c(=O)cc6c5c5c(cc(=O)c(c1O)c35)OCO6)=C(O)[C@@]1(OC)O[C@H](C)C[C@@]41C2
inactive: dose: 2.5 mg/kg/injection, schedule: Q01DX009 (ip), vehicle: saline with Tween-80 95 % of control | dose: 5.0 mg/kg/injection, schedule: Q01DX009 (ip), vehicle: saline with Tween-80 95 % of control | dose: 10.0 mg/kg/injection, schedule: Q01DX009 (ip), vehicle: saline with Tween-80 95 % of control

O=c1[nH]cnc2c1nnn2C1OC(CO)C(O)C1O (stereo unspecified)
inactive: dose: 25.0 mg/kg/injection, schedule: Q01DX005 (ip), vehicle: saline 102 % of control and 105 % of control | [10] 107 % of control and 111 % of control | [11] 114 % of control and 118 % of control | [12] 111 % of control and 116 % of control | dose: 400.0 mg/kg/injection, schedule: Q01DX005 (ip), vehicle: saline 100 % of control
